Measured values from patent US20130195886A1, “Methods for Fructanase and Fructokinase Inhibition” (The Regents of the University of Colorado, A Body Corporate, priority 2011, published 2013).

Assays:
KHKA = target: T1, KHKA (Homo sapiens, UniProt P50053); assay: KHKA % inhibition of virtual-screen hits; conditions: for inhibition at 10 µM: read-out: KHKA % Inhibition (10 µM)
T1 sequence (P50053 1-298 isoform P50053-2): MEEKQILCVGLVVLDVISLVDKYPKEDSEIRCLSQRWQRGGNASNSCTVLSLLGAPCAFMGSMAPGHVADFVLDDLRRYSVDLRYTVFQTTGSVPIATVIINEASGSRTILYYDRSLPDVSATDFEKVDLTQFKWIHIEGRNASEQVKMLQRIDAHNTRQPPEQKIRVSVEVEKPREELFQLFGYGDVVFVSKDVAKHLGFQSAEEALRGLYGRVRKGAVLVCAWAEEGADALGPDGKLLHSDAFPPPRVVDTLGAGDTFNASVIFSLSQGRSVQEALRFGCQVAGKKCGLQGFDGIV

KHKC = target: T2, KHKC (Homo sapiens, UniProt P50053); assay: KHKC % inhibition of virtual-screen hits; conditions: for KHKC % Inhibition (10 UM): 10 uM compound; for inhibition at 10 µM: read-out: KHKC % Inhibition (10 µM)
T2 sequence (P50053 1-298): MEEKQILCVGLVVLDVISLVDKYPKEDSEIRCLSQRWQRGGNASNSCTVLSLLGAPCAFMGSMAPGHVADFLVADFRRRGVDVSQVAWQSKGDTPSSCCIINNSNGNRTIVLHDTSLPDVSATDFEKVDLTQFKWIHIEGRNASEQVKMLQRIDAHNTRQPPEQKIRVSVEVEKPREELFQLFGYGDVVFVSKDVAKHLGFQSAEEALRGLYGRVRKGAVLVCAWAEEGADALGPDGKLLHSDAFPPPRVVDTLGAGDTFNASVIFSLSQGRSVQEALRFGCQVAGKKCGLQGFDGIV

wild type (WT) mice = assay: fructose feeding, duodenum quantitative real time PCR; format: in vivo; conditions: 15% fructose water 3 weeks, actin control
Protocol: In the first set of studies, three-month-old male wild type (WT) mice or fructokinase A/C knockout mice (KHK-A/C KO) (obtained from David Bonthron, Leeds, UK)(72) were administered fructose with normal chow for 3 weeks. […] Due to the different preference for fructose water between WT mice and KHK-A/C KO mice, mice were given 15% or 30% of fructose water, respectively. Both WT mice and KHK-A/C KO mice drank the same amount of fructose (FIG. 4A). For each group, the duodenum was removed after 20 hours of fasting of normal chow and the lining scraped and RNA extracted. Quantitative real time PCR was performed for fructokinase C (KHK-C, FIG. 4B), and tight junction genes occludin (FIG. 4C) and ZO-1 (FIG. 4D) using actin as an internal control.

[1] = tested on: allergy-susceptible mice (lacking the toll-like receptor 4); assay: Experiment 1: peanut food allergy sensitisation and challenge; format: in vivo; conditions: fructose 30% in water added to peanuts plus cholera toxin
mice = format: in vivo; conditions: fructose (30%) vs no fructose, p<0.02 Mann Whitney
[2] = tested on: human intestinal epithelial cells (CaCo-2); assay: fructose exposure of intestinal epithelial cells, polarity and tight junction expression; format: cell-based

For CSc1nn(-c2ccccc2)cc1/C(N)=N/OC(=O)Nc1ccc(OC(F)(F)F)cc1 [Cpd 1], the “KHKA % Inhibition (10 UM)” value (KHKA; 10 uM compound) was 7.0%, the inhibition at 10 µM (KHKA) was 7% and the “KHKC % Inhibition (10 UM)” value (KHKC) was 25.6%. It also gave an inhibition at 10 µM (KHKC) of 25.6%.

With CSc1nn(-c2ccccc2)c(N)c1C#N [Cpd 2] the “KHKA % Inhibition (100 uM)” value (KHKA; 100 uM compound) was 29.4%, the inhibition at 10 µM (KHKA) was 5.7% and the inhibition at 100 µM (KHKA; read-out: KHKA % Inhibition (100 uM)) was 29.4%. For the same compound, the “KHKC % Inhibition (100 uM)” value (KHKC; 100 uM compound) was 16.8%, the inhibition at 10 µM (KHKC) was 7.8% and the inhibition at 100 µM (KHKC; read-out: KHKC % Inhibition (100 uM)) was 16.8%.

For CSc1nn(-c2ccccc2)cc1-c1nc(-c2ccccc2)cs1 [Cpd 3], the “KHKC % Inhibition (10 UM)” value (KHKC) was 19.9% and the inhibition at 10 µM (KHKC) was 19.9%.

O=C(CO)[C@@H](O)[C@H](O)[C@H](O)CO [fructose] was tested, and the “KHK mRNA expression” value (wild type (WT) mice) was “upregulation”, the “ZO-1 mRNA” value (wild type (WT) mice) was “significant decrease” and the “occludin mRNA” value (wild type (WT) mice) was “significant decrease”. The “fall in temperature, group 3 compared to group 1” value [1] was “greater fall in temperature”, the “symptoms, group 3 compared to group 1” value [1] was “numerically worse symptoms” and the “peanut IgE levels” value (mice) was “higher”. The “expression of genes involved in the maintenance of cell polarity” value ([2]; 5 mM fructose) was “markedly decreased”, the “expression of transmembrane (claudin-4) and scaffolding (ZO-1 and occluding) proteins at the tight junctions” value ([2]; fructose exposure) was “substantially down-regulated” and the “localisation of polarity/tight junction proteins (confocal analysis)” value ([2]; fructose exposure) was “translocates them intracellularly from the basolateral membrane domain”. The expression of e-cadherin ([2]; fructose for 96 hours) was “dramatically down-regulated”.
